# Measurements reported in patent US12274684B2, “Treatment of vasculopathy with prostacyclin and mesenchymal stem cells” (United Therapeutics Corporation, priority 2013, dated 2025).
# Several values for one entry are separate records, joined by “and”; a condition that tells them apart may be missing. Identical values can stand only once.
# System: human bone marrow MSC
# Experiment: Microarray gene expression analysis of MSC (Illumina Human HT12 Expression BeadChip)
# Assay type: cell-based
# Conditions: 24 h
# Experimental: Human bone marrow MSC were expanded and seeded into six (6) T225 flasks using standard growth medium (Table 1). At 95-99% confluency, cells were thoroughly washed with PBS. Three (3) flasks were replenished with basal media containing 250 μg/mL treprostinil, (+)Tre, and the remaining three (3) flasks were replenished with unsupplemented basal media, (−)Tre. After 24 hours of culture, representative images were captured from (+) Tre and (−) Tre cultures. Conditioned media was collected from each replicate, divided into two samples of appropriate volumes, and analyzed separately for: 1) secreted proteins (Myriad RBM InflammationMAP® 1.0) and 2) exosome RNA content. Cells were lysed directly from culture flasks, processed for total RNA isolation, and analyzed for gene expression by microarray (Illumina Human HT12 Expression BeadChip). Microarray gene expression analysis was also performed on MSC from cultures without (−) or with (+) 250 ug/mL treprostinil. Three (3) biological replicates from each condition were analyzed. Of the 77,612 sequences identified among all replicates, only 24,273 were detected above the arbitrary background of 50 counts. 2,984 RNA sequences were unique to Tre(−) cultures, while 1,781 RNA sequences were unique to Tre(+) cultures (panel A). Genes detected in both conditions were further analyzed for differential expression (panel). […] Genes that are expressed only in Tre(−) cultures (that is to say, completely turned off in the Tre(+) cultures) are shown in Table 5.
structure (smiles),measurement,setting,value
CCCCC[C@H](O)CC[C@@H]1[C@H]2Cc3cccc(OCC(=O)O)c3C[C@H]2C[C@H]1O [treprostinil],"ACTN1 (NM_001130005) Fold Change, decrease in Tre(+) vs Tre(−)",250 μg/mL,12.7 fold
same,"ANGPT1 (NM_001146) Fold Change, decrease in Tre(+) vs Tre(−)",250 μg/mL,14.6 fold
same,"ANK3 (NM_001204403) Fold Change, decrease in Tre(+) vs Tre(−)",250 μg/mL,14.2 fold
same,"ANLN (NM_018685) Fold Change, decrease in Tre(+) vs Tre(−)",250 μg/mL,11.7 fold
same,"C11orf96 (NM_001145033) Fold Change, increase in Tre(+) vs Tre(−)",250 μg/mL,12.0 fold
same,"C13orf33 (NM_032849) Fold Change, increase in Tre(+) vs Tre(−)",250 μg/mL,21.0 fold
same,"CD55 (NM_000574) Fold Change, increase in Tre(+) vs Tre(−)",250 μg/mL,21.5 fold
same,"CD55 (NM_001114752) Fold Change, increase in Tre(+) vs Tre(−)",250 μg/mL,13.2 fold
same,"CELF1 (NM_001172640) Fold Change, decrease in Tre(+) vs Tre(−)",250 μg/mL,10.9 fold
same,"COL6A3 (NM_004369) Fold Change, decrease in Tre(+) vs Tre(−)",250 μg/mL,11.7 fold
same,"COL21A1 (NM_030820) Fold Change, decrease in Tre(+) vs Tre(−)",250 μg/mL,27.4 fold
same,"CPA4 (NM_016352) Fold Change, decrease in Tre(+) vs Tre(−)",250 μg/mL,12.0 fold
same,"CTGF (NM_001901) Fold Change, decrease in Tre(+) vs Tre(−)",250 μg/mL,31.1 fold
same,"CXCL12 (NM_199168) Fold Change, decrease in Tre(+) vs Tre(−)",250 μg/mL,15.8 fold
same,"DDAH1 (NM_001134445) Fold Change, decrease in Tre(+) vs Tre(−)",250 μg/mL,12.7 fold
same,"DKFZp547J0510 (CDNA FLJ42650 fis, clone BRACE3027478) Fold Change, decrease in Tre(+) vs Tre(−)",250 μg/mL,13.0 fold
same,"DUSP1 (NM_004417) Fold Change, increase in Tre(+) vs Tre(−)",250 μg/mL,12.9 fold
same,"EPB41L2 (NM_001199389) Fold Change, decrease in Tre(+) vs Tre(−)",250 μg/mL,11.2 fold
same,"GDF5 (NM_000557) Fold Change, decrease in Tre(+) vs Tre(−)",250 μg/mL,12.5 fold
same,"GDF15 (NM_004864) Fold Change, increase in Tre(+) vs Tre(−)",250 μg/mL,32.1 fold
same,"GPRC5A (NM_003979) Fold Change, increase in Tre(+) vs Tre(−)",250 μg/mL,13.2 fold
same,"HSD11B1 (NM_005525) Fold Change, increase in Tre(+) vs Tre(−)",250 μg/mL,15.4 fold
same,"IDH1 (NM_005896) Fold Change, increase in Tre(+) vs Tre(−)",250 μg/mL,13.1 fold
same,"IER3 (NM_003897) Fold Change, increase in Tre(+) vs Tre(−)",250 μg/mL,22.5 fold
same,"IGFBP1 (NM_000596) Fold Change, increase in Tre(+) vs Tre(−)",250 μg/mL,118.2 fold
same,"IL6 (NM_000600) Fold Change, increase in Tre(+) vs Tre(−)",250 μg/mL,109.5 fold
same,"ISLR (NM_005545) Fold Change, decrease in Tre(+) vs Tre(−)",250 μg/mL,10.1 fold
same,"LIPG (NM_006033) Fold Change, increase in Tre(+) vs Tre(−)",250 μg/mL,13.2 fold
same,"LMOD1 (NM_012134) Fold Change, decrease in Tre(+) vs Tre(−)",250 μg/mL,26.4 fold
same,"MEST (NM_002402) Fold Change, decrease in Tre(+) vs Tre(−)",250 μg/mL,15.1 fold
same,"MEST (NM_177525) Fold Change, decrease in Tre(+) vs Tre(−)",250 μg/mL,11.9 fold
same,"METTL7A (NM_014033) Fold Change, decrease in Tre(+) vs Tre(−)",250 μg/mL,11.9 fold
same,"MXRA5 (NM_015419) Fold Change, decrease in Tre(+) vs Tre(−)",250 μg/mL,32.6 fold
same,"NR4A2 (NM_006186) Fold Change, increase in Tre(+) vs Tre(−)",250 μg/mL,12.5 fold
same,"OLFML1 (NM_198474) Fold Change, decrease in Tre(+) vs Tre(−)",250 μg/mL,12.4 fold
same,"OLFML2B (NM_015441) Fold Change, decrease in Tre(+) vs Tre(−)",250 μg/mL,20.8 fold
same,"PALLD (NM_001166109) Fold Change, decrease in Tre(+) vs Tre(−)",250 μg/mL,13.0 fold
same,"PALLD (NM_001166110) Fold Change, increase in Tre(+) vs Tre(−)",250 μg/mL,13.3 fold
same,"PDE5A (NM_033430) Fold Change, decrease in Tre(+) vs Tre(−)",250 μg/mL,15.2 fold
same,"PITPNC1 (NM_181671) Fold Change, increase in Tre(+) vs Tre(−)",250 μg/mL,16.0 fold
same,"PLIN2 (NM_001122) Fold Change, increase in Tre(+) vs Tre(−)",250 μg/mL,47.0 fold
same,"PRELP (NM_002725) Fold Change, decrease in Tre(+) vs Tre(−)",250 μg/mL,12.9 fold
same,"PRKAG2 (NM_024429) Fold Change, increase in Tre(+) vs Tre(−)",250 μg/mL,78.6 fold
same,"PTP4A1 (NM_003463) Fold Change, increase in Tre(+) vs Tre(−)",250 μg/mL,11.8 fold
same,"RCAN1 (NM_203418) Fold Change, increase in Tre(+) vs Tre(−)",250 μg/mL,10.9 fold
same,"RCAN2 (NM_001251974) Fold Change, decrease in Tre(+) vs Tre(−)",250 μg/mL,11.6 fold
same,"RND3 (NM_005168) Fold Change, increase in Tre(+) vs Tre(−)",250 μg/mL,12.9 fold
same,"S100A4 (NM_002961) Fold Change, decrease in Tre(+) vs Tre(−)",250 μg/mL,10.5 fold
same,"SAT1 (transcript variant 2, non-coding RNA) Fold Change, increase in Tre(+) vs Tre(−)",250 μg/mL,13.5 fold
same,"SCG2 (NM_003469) Fold Change, increase in Tre(+) vs Tre(−)",250 μg/mL,21.3 fold
same,"SIK1 (NM_173354) Fold Change, increase in Tre(+) vs Tre(−)",250 μg/mL,20.3 fold
same,"SLC2A12 (NM_145176) Fold Change, decrease in Tre(+) vs Tre(−)",250 μg/mL,12.2 fold
same,"SLC3A2 (NM_001013251) Fold Change, increase in Tre(+) vs Tre(−)",250 μg/mL,10.5 fold
same,"SLC6A15 (NM_182767) Fold Change, increase in Tre(+) vs Tre(−)",250 μg/mL,23.7 fold
same,"SLC14A1 (NM_015865) Fold Change, decrease in Tre(+) vs Tre(−)",250 μg/mL,18.5 fold
same,"SREBF1 (NM_004176) Fold Change, increase in Tre(+) vs Tre(−)",250 μg/mL,11.5 fold
same,"SYNPO2 (NM_001128933) Fold Change, decrease in Tre(+) vs Tre(−)",250 μg/mL,24.6 fold
same,"VEGFA (NM_001025370) Fold Change, increase in Tre(+) vs Tre(−)",250 μg/mL,13.5 fold
same,"VEGFA (NM_001171626) Fold Change, increase in Tre(+) vs Tre(−)",250 μg/mL,11.5 fold
same,"ANGPTL4 (NM_139314) expression, Rep 1-3",Tre(+) 250 μg/mL,1570 counts and 2337 counts and 1371 counts
same,"ANLN (NM_018685) expression, Rep 1-3",Tre(+) 250 μg/mL,67 counts and 68 counts and 37 counts
